Data taken from article PMC7539972, “Role of Two Exceptional trans Adenylation Domains and MbtH‐like Proteins in the Biosynthesis of the Nonribosomal Peptide WS9324A from Streptomyces calvus ATCC 13382” (Chembiochem, 2020).

Legend:
Assay in all cases: […]PPi release adenylation assay
Assay type in all cases: biochemical
[1] = molecular target: T1, Cal23Asn/Cal4 complex (Streptomyces calvus, UniProt A0A0N9M336); conditions: 0.2 mM amino acid, 0.15 mM ATP, 1 mM MgCl2, 25 °C, 3 h, 30 μM enzyme; most active of 20 proteinogenic amino acids
T1 construct: gene cal23; complete ORF, A-PCP didomain, N-terminal His6 tag; copurified with untagged MbtH-like protein Cal4; E. coli BL21(DE3) ΔybdZ; with MbtH-like protein

[2] = molecular target: T2, Cal22Thr (Streptomyces calvus, UniProt A0A0N9LS39); conditions: 0.2 mM amino acid, 0.15 mM ATP, 1 mM MgCl2, 25 °C, 3 h, 30 μM enzyme; most active of 20 proteinogenic amino acids
T2 construct: gene cal22; complete ORF, A-PCP didomain, N-terminal His6 tag; E. coli BL21(DE3) ΔybdZ, coexpressed with untagged Cal4 (Cal4 not copurified)

[3] = molecular target: T1, Cal23Asn/Cal4 complex; conditions: co-substrate asparagine 0.2 mM; 0.15 mM ATP, 1 mM MgCl2, 25 °C, 3 h; labelled compound
[4] = molecular target: T2, Cal22Thr; conditions: co-substrate threonine 0.2 mM; 0.15 mM ATP, 1 mM MgCl2, 25 °C, 3 h; labelled compound

T2 sequence (A0A0N9LS39 entry or part of it): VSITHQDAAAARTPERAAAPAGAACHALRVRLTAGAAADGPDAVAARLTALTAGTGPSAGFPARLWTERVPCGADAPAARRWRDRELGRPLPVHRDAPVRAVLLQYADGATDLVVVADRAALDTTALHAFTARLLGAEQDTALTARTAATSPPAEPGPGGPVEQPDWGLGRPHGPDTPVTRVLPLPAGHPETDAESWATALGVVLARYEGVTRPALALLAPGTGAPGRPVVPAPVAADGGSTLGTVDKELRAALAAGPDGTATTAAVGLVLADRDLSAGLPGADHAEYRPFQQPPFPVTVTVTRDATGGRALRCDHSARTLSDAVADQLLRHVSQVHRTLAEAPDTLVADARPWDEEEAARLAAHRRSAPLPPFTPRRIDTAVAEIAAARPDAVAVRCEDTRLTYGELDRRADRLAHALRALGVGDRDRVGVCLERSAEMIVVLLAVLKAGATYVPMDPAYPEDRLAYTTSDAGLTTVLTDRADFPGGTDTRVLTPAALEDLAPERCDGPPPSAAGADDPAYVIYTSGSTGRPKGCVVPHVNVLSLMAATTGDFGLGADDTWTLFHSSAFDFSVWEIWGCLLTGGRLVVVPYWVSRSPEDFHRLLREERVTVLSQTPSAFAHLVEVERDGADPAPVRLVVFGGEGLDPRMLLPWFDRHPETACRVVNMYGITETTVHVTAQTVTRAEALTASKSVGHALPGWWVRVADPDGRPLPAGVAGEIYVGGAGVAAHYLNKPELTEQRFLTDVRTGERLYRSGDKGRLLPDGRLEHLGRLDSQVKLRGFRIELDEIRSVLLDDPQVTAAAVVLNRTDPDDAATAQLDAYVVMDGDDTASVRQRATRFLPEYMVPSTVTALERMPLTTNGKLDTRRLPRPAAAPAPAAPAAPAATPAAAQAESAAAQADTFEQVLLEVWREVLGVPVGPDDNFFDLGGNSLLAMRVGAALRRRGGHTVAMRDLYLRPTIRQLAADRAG
T1 sequence (A0A0N9M336 entry or part of it): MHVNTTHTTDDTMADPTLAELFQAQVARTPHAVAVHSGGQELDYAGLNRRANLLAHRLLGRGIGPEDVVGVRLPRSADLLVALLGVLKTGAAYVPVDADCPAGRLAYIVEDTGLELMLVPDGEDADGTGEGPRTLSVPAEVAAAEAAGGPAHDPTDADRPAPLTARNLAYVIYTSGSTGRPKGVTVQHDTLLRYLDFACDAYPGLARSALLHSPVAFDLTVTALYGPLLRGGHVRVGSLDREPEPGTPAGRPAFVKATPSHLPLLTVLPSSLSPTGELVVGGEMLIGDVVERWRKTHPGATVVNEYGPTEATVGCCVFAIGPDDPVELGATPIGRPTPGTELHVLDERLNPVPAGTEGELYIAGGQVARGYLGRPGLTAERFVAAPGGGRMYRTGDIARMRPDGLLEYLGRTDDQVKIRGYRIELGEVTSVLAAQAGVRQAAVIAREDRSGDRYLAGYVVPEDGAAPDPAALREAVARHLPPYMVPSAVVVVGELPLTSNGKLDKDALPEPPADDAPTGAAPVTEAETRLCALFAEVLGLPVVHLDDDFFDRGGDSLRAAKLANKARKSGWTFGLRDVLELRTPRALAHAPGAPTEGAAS
T1 sequence (A0A0N9M601 entry or part of it, further chain): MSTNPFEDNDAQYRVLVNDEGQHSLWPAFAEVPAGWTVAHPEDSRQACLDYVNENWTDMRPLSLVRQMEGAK

Compound: NC(=O)C[C@H](N)C(=O)O [asparagine]
- relative adenylation activity [1]: Cal23Asn/Cal4 complex was most active towards asparagine, the predicted substrate of the A‐domain

Compound: C[C@@H](O)[C@H](N)C(=O)O [threonine]
- relative adenylation activity [2]: Cal22Thr was observed to be most specific towards its predicted substrate threonine

Compound: Nc1ncnc2c1ncn2[C@@H]1O[C@H](COP(=O)(O)OP(=O)(O)OP(=O)(O)O)[C@@H](O)[C@H]1O [ATP]
- [33P]PPi release adenylation assay [3]: the reaction of ATP with an amino acid to form an amino acyl adenylate was measured
- [33P]PPi release adenylation assay [4]: the reaction of ATP with an amino acid to form an amino acyl adenylate was measured
